# Measurements published in ChEMBL document CHEMBL4184313, “Enantiomeric neolignans from Picrasma quassioides exhibit distinctive cytotoxicity on hepatic carcinoma cells through ROS generation and apoptosis induction” (Bioorg Med Chem Lett, 2018).
# pIC50: −log10 of the molar value. Calls of active or inactive are those of the source. The rule behind the calls is not given here.
# Tests used:
# HepG2 [1] = experiment: Cytotoxicity against human HepG2 cells assessed as decrease in cell viability after 48 hrs by MTT assay; assay type: functional, cell-based; conditions: HepG2, 48 h
# Hep 3B2 = experiment: Cytotoxicity against human Hep3B cells assessed as decrease in cell viability after 48 hrs by MTT assay; assay type: functional, cell-based
# HepG2 [2] = experiment: Cell cycle arrest in human HepG2 cells assessed as <2N DNA content at 50 uM after 48 hrs by PI staining based flow cytometry (reference value: 4.18%); assay type: functional
# HepG2 [3] = experiment: Cell cycle arrest in human HepG2 cells assessed as 2N DNA content at 50 uM after 48 hrs by PI staining based flow cytometry (reference value: 70.6%); assay type: functional
# HepG2 [4] = experiment: Cell cycle arrest in human HepG2 cells assessed as accumulation at S phase at 50 uM after 48 hrs by PI staining based flow cytometry (reference value: 7%); assay type: functional
# HepG2 [5] = experiment: Cell cycle arrest in human HepG2 cells assessed as 4N DNA content at 50 uM after 48 hrs by PI staining based flow cytometry (reference value: 15.2%); assay type: functional
# HepG2 [6] = experiment: Cell cycle arrest in human HepG2 cells assessed as >4N DNA content at 50 uM after 48 hrs by PI staining based flow cytometry (reference value: 2.04%); assay type: functional
# HepG2 [7] = experiment: Induction of apoptosis in human HepG2 cells assessed as rounding of cells at 50 uM after 48 hrs by phase contrast microscopy; assay type: functional, cell-based
# HepG2 [8] = experiment: Induction of apoptosis in human HepG2 cells assessed as shrinkage of cells at 50 uM after 48 hrs by phase contrast microscopy; assay type: functional, cell-based
# HepG2 [9] = experiment: Induction of apoptosis in human HepG2 cells assessed as apoptotic bodies at 50 uM after 48 hrs by phase contrast microscopy; assay type: functional, cell-based
# HepG2 [10] = experiment: Induction of apoptosis in human HepG2 cells assessed as nuclear condensation at 50 uM after 48 hrs by […] staining based fluorescence microscopy; assay type: functional, cell-based
# HepG2 [11] = experiment: Induction of apoptosis in human HepG2 cells assessed as viable cells at 50 uM after 48 hrs by Annexin V-FITC/PI staining based flow cytometry (reference value: 95.7%); assay type: functional; conditions: HepG2, 48 h, read-out: Activity
# HepG2 [12] = experiment: Induction of apoptosis in human HepG2 cells assessed as early apoptotic cells at 50 uM after 48 hrs by Annexin V-FITC/PI staining based flow cytometry (reference value: 1.61%); assay type: functional
# HepG2 [13] = experiment: Induction of apoptosis in human HepG2 cells assessed as late apoptotic cells at 50 uM after 48 hrs by Annexin V-FITC/PI staining based flow cytometry (reference value: 2.03%); assay type: functional
# HepG2 [14] = experiment: Induction of apoptosis in human HepG2 cells assessed as necrotic cells at 50 uM after 48 hrs by Annexin V-FITC/PI staining based flow cytometry (reference value: 0.62%); assay type: functional
# HepG2 [15] = experiment: Induction of intracellular ROS accumulation in human HepG2 cells at 50 uM after 48 hrs by DCFH probe based flow cytometry; assay type: functional, cell-based
structure (smiles),measurement,setting,value
COc1cc([C@@H]2Oc3c(OC)cc(/C=C/C=O)cc3[C@H]2CO)cc(OC)c1O,pIC50,HepG2 [1],3.98
same,pIC50,Hep 3B2,4.22
COc1cc([C@H]2Oc3c(OC)cc(/C=C/C=O)cc3[C@@H]2CO)ccc1O,pIC50,HepG2 [1],4.42
same,pIC50,Hep 3B2,4.65
COc1cc(C2Oc3c(OC)cc(/C=C/C=O)cc3C2CO)cc(OC)c1O (racemic),pIC50,HepG2 [1],4.09
same,pIC50,Hep 3B2,4.11
COc1cc([C@@H]2Oc3c(OC)cc(/C=C/CO)cc3[C@H]2CO)ccc1O [DEHYDROCONIFERYL ALCOHOL],pIC50,HepG2 [1],3.98
same,pIC50,Hep 3B2,4.26
same,Activity,HepG2 [2],3.76%
same,Activity,HepG2 [3],70.1%
same,Activity,HepG2 [4],8.2%
same,Activity,HepG2 [5],16.8%
same,Activity,HepG2 [6],1.14%
same,Activity,HepG2 [7],Active
same,Activity,HepG2 [8],Active
same,Activity,HepG2 [9],Active
same,Activity,HepG2 [10],Active
same,viability at 50 µM,HepG2 [11],94.4%
same,Activity,HepG2 [12],2.5%
same,Activity,HepG2 [13],2.37%
same,Activity,HepG2 [14],0.74%
same,Activity,HepG2 [15],inactive
COc1cc([C@H]2Oc3c(OC)cc(/C=C/C=O)cc3[C@@H]2CO)cc(OC)c1O,pIC50,HepG2 [1],4.05
same,pIC50,Hep 3B2,4.14
COc1cc(C2Oc3c(OC)cc(/C=C/CO)cc3C2CO)ccc1O (racemic),pIC50,HepG2 [1],4.10
same,pIC50,Hep 3B2,4.18
COc1cc([C@H]2Oc3c(OC)cc(/C=C/CO)cc3[C@@H]2CO)ccc1O,pIC50,HepG2 [1],4.45
same,pIC50,Hep 3B2,4.28
same,Activity,HepG2 [2],3.86%
same,Activity,HepG2 [3],70.2%
same,Activity,HepG2 [4],6.2%
same,Activity,HepG2 [5],19.1%
same,Activity,HepG2 [6],0.6%
same,Activity,HepG2 [7],Active
same,Activity,HepG2 [8],Active
same,Activity,HepG2 [9],Active
same,Activity,HepG2 [10],Active
same,viability at 50 µM,HepG2 [11],86%
same,Activity,HepG2 [12],8.39%
same,Activity,HepG2 [13],3.87%
same,Activity,HepG2 [14],1.71%
same,Activity,HepG2 [15],Active
COc1cc(C2Oc3c(OC)cc(/C=C/C=O)cc3C2CO)ccc1O (racemic),pIC50,HepG2 [1],4.44
same,pIC50,Hep 3B2,4.53
COc1cc([C@@H]2Oc3c(OC)cc(/C=C/C=O)cc3[C@H]2CO)ccc1O,pIC50,HepG2 [1],4.41
same,pIC50,Hep 3B2,4.50
